Laboratory results taken from the supplement of paper PMC10307832.

Columns and labels:
Assay in all cases: relative viability (nuclei count vs DMSO), 5 days (fraction); higher = more cells survive
[1] = compound: CC1CC(=O)N(C2=CN=C(N=C2N1C3CCCC3)NC4=C(C=C(C=C4)C(=O)NC5CCN(CC5)C)OC)C [NPK76-II-72-1] + COc1cc2c(Oc3ccc(NC(=O)C4(C(=O)Nc5ccc(F)cc5)CC4)cc3F)ccnc2cc1OCCCN1CCOCC1 [Foretinib] (partner 0.25 µM)
Procedure, shortened: (§1)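 The day after seeding in 1536-well plates, lung cancer cell lines were treated by pin tool with a single drug, or with a fixed anchor-drug dose together with five library-drug doses (not always all listed) in √10 steps. After 5 days, a combined fix-and-stain solution (final 0.05% Triton X-100, 1% formaldehyde, 1 ug/ml Hoechst) was added. Nuclei counted on 4× images gave relative viability as treated counts over vehicle counts, reported as the median of duplicate plates.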

[2] = compound: CC[C@@H]1C(=O)N(C)c2cnc(Nc3ccc(C(=O)NC4CCN(C)CC4)cc3OC)nc2N1C1CCCC1 [BI-2536] + Nc1nc2[nH]cc(CCc3ccc(C(=O)N[C@@H](CCC(=O)O)C(=O)O)cc3)c2c(=O)[nH]1 [Pemetrexed] (partner 0.2 µM)
Procedure, shortened: as §1

[3] = compound: CC[C@@H]1C(=O)N(C)c2cnc(Nc3ccc(C(=O)NC4CCN(C)CC4)cc3OC)nc2N1C1CCCC1 [BI-2536] + COc1cccc2cc(-c3nc([C@H]4CC[C@H](C(=O)O)CC4)n4ncnc(N)c34)[nH]c12 [OSI-027] (partner 0.5 µM)
Procedure, shortened: as §1

[4] = compound: CC[C@@H]1C(=O)N(C)c2cnc(Nc3ccc(C(=O)NC4CCN(C)CC4)cc3OC)nc2N1C1CCCC1 [BI-2536] + CS(=O)(=O)CCNCc1ccc(-c2ccc3ncnc(Nc4ccc(OCc5cccc(F)c5)c(Cl)c4)c3c2)o1 [Lapatinib] (partner 2 µM)
Procedure, shortened: as §1

| Cell Line | relative viability ([1]; first compound 0.01 µM) | relative viability ([1]; first compound 0.03162 µM) | relative viability ([1]; first compound 0.1 µM) | relative viability ([1]; first compound 0.3162 µM) | relative viability ([1]; first compound 1 µM) | relative viability ([2]; first compound 0.01 µM) | relative viability ([2]; first compound 0.03162 µM) | relative viability ([2]; first compound 0.1 µM) | relative viability ([2]; first compound 0.3162 µM) | relative viability ([2]; first compound 1 µM) | relative viability ([3]; first compound 0.01 µM) | relative viability ([3]; first compound 0.03162 µM) | relative viability ([3]; first compound 0.1 µM) | relative viability ([3]; first compound 0.3162 µM) | relative viability ([3]; first compound 1 µM) | relative viability ([4]; first compound 0.01 µM) | relative viability ([4]; first compound 0.03162 µM) | relative viability ([4]; first compound 0.1 µM) | relative viability ([4]; first compound 0.3162 µM) | relative viability ([4]; first compound 1 µM) |
| --- | --- | --- | --- | --- | --- | --- | --- | --- | --- | --- | --- | --- | --- | --- | --- | --- | --- | --- | --- | --- |
| NCI-H1944 | 0.9 | 0.936 | 0.899 | 0.808 | 0.992 | 0.631 | 0.649 | 0.425 | 0.18 | 0.142 | 0.418 | 0.443 | 0.291 | 0.134 | 0.148 | 0.848 | 0.832 | 0.754 | 0.678 | 0.161 |
| NCI-H1975 | 1.01 | 0.981 | 0.826 | 0.929 | 0.943 | 0.297 | 0.276 | 0.22 | 0.169 | 0.168 | 0.628 | 0.623 | 0.515 | 0.125 | 0.107 | 0.853 | 0.622 | 0.421 | 0.153 | 0.175 |
| NCI-H1993 | 0.801 | 0.791 | 0.868 | 0.604 | 0.808 | 0.64 | 0.569 | 0.421 | 0.393 | 0.435 | 0.521 | 0.481 | 0.519 | 0.484 | 0.453 | 0.81 | 0.828 | 0.533 | 0.566 | 0.555 |
| NCI-H2009 | 0.843 | 1.25 | 1.22 | 1.21 | 1.23 | 1.07 | 1 | 0.674 | 0.223 | 0.274 | 0.613 | 0.543 | 0.259 | 0.173 | 0.154 | 0.869 | 0.64 | 0.101 | 0.158 | 0.0981 |
| NCI-H2023 | 0.659 | 0.797 | – | 0.624 | 1.07 | 0.225 | 0.197 | 0.124 | 0.0926 | 0.0873 | 0.398 | 0.406 | 0.189 | 0.0915 | 0.0907 | 0.963 | 0.613 | 0.0796 | 0.0761 | 0.142 |
| NCI-H2085 | 0.792 | 0.923 | 0.902 | 0.781 | 1.15 | 0.961 | 1.01 | 0.664 | 0.172 | 0.243 | 0.833 | 0.602 | 0.282 | 0.153 | 0.272 | 0.781 | 0.71 | 0.427 | 0.252 | 0.324 |
| NCI-H2087 | 1.04 | 1.06 | 1.09 | 1.12 | 1.32 | 0.7 | 0.697 | 0.713 | 0.104 | 0.0907 | 0.564 | 0.541 | 0.186 | 0.101 | 0.0808 | 1.38 | 0.992 | 0.594 | 0.138 | 0.146 |
| NCI-H2126 | 1.47 | 1.23 | 0.916 | 1.14 | 1.17 | 0.747 | 0.74 | 0.369 | 0.286 | 0.217 | 0.832 | 0.641 | 0.472 | 0.276 | 0.218 | 0.782 | 0.689 | 0.725 | 0.619 | 0.267 |
